O=C(O)Cc1ccccc1[N+](=O)[O-]
solubility (mole fraction)
Settings | 283.15 K | 288.15 K | 293.15 K | 298.15 K | 303.15 K | 308.15 K | 313.15 K | 318.15 K | 323.15 K | 328.15 K
in 1,4-dioxane | – | 0.0461 | 0.0535 | 0.0618 | 0.0732 | 0.0853 | 0.1 | 0.118 | 0.139 | 0.162
in DMF | 0.18 | 0.202 | 0.222 | 0.249 | 0.277 | 0.308 | 0.338 | 0.371 | 0.406 | 0.445
in acetonitrile | 0.0143 | 0.016 | 0.0184 | 0.0219 | 0.0255 | 0.0304 | 0.0365 | 0.0437 | 0.0515 | 0.0604
in cyclohexane | 8.88e-06 | 1.22e-05 | 1.65e-05 | 2.23e-05 | 2.94e-05 | 3.79e-05 | 4.9e-05 | 6.35e-05 | 8.34e-05 | 0.000108
in ethanol | 0.0273 | 0.0317 | 0.0367 | 0.0432 | 0.0516 | 0.0627 | 0.0743 | 0.0878 | 0.104 | 0.123
in ethyl acetate | 0.0285 | 0.0323 | 0.0383 | 0.0453 | 0.055 | 0.0651 | 0.0764 | 0.0877 | 0.0979 | 0.11
in ethylene glycol | 0.0148 | 0.0175 | 0.0208 | 0.0245 | 0.0287 | 0.0337 | 0.0399 | 0.0473 | 0.0561 | 0.0664
in isobutanol | 0.00864 | 0.0106 | 0.0134 | 0.0169 | 0.0218 | 0.0271 | 0.033 | 0.0394 | 0.0465 | 0.0573
in isopropanol | 0.0154 | 0.0182 | 0.0216 | 0.0253 | 0.0302 | 0.035 | 0.0414 | 0.0482 | 0.0564 | 0.0665
in methanol | 0.0409 | 0.0455 | 0.0521 | 0.0584 | 0.0673 | 0.0769 | 0.0887 | 0.102 | 0.117 | 0.134
in n-butanol | 0.0168 | 0.0198 | 0.0233 | 0.0271 | 0.0323 | 0.0382 | 0.0451 | 0.0533 | 0.0618 | 0.0742
in n-propanol | 0.0181 | 0.0219 | 0.0263 | 0.0312 | 0.037 | 0.0441 | 0.0533 | 0.0637 | 0.0767 | 0.0934
in water | 5.33e-05 | 7.8e-05 | 0.000105 | 0.000141 | 0.000185 | 0.000248 | 0.000321 | 0.000426 | 0.000554 | 0.000727

— BigSolDB 2.1
